The values below come from patent US20050267128A1, “Compounds, compositions and methods of modulating the mitochondrial apoptosis-induced channel (MAC)” (priority 2004, published 2005).

Entries after “also recorded” stand apart in the source; their conditions may differ.

For assay [1], the system named is mitochondrial apoptosis-induced channel (MAC). The assay is described as follows: Patch clamp of MAC in proteoliposomes containing mitochondrial outer membranes of apoptotic FL5.12 cells. The class given is biochemical, mouse. The following applies: for IC50 for MAC, stated in words / Hill coefficient of MAC blockade / IC50: patch clamp, proteoliposomes; for voltage dependence of MAC blockade: current voltage curves between +40 mV and −40 mV; for IC50: 150 mM KCl 5 mM HEPES pH 7.4, read-out: IC50 for blockade of MAC (inhibition of conductance); for reversibility of MAC blockade on removal by perfusion of the bath: wash out with 150 mM KCl 5 mM HEPES. On the technique in general: In patch-clamp work, channel activity is measured electrically.
Protocol: Hematopoietic FL5.12 cells are a mouse leukemia cell line that enters apoptosis after withdrawal of the growth factor interleukin-3 (IL-3) (Gross, A., Jockel, J., Wei, M. C. and Korsmeyer, S. J. (1998). Parental FL5.12 cells were cultured as previously described (Gross, A., Jockel, J., Wei, M. C. and Korsmeyer, S. J. (1998) EMBO J. 17, 3878-85) in Iscove's Modified Eagle Media (IMEM), 10% Fetal Bovine Serum, 10% WEHI-3B supplement (filtered supernatant of WEHI-3B cells secreting IL-3). Cultures were kept below 1.5 million cells/ml. Cells were washed three times in media without IL-3 (WEHI supplement) to induce apoptosis twelve hours prior to the isolation of mitochondria (Zamzami, N., Susin, S. A., Marchetti, P., Hirsch, T., Gomez-Monterrey, I., Castedo, M. and Kroemer, G. (1996).
Mitochondria were isolated from 2-15 g of FL5.12 cells as previously described for outer membrane preparations (Guo, L., Pietkiewicz, D., Pavlov, E. V., Kasianowicz, J. J., Korsmeyer, S. J., Antonsson, B. and Kinnally, K. W. (2004) American Journal of Physiology, Cell Biology. 286, C1109-17; Pavlov, E. V., Priault, M., Pietkiewicz, D., Cheng, E.H.-Y., Antonsson, B., Manon, S., Korsmeyer, S. J., Mannella, C. A. and Kinnally, K. W. (2001) J. Cell Biology 155, 725-732). Outer membranes were stripped from the inner membranes by French pressing isolated mitochondria using modifications of the method of Decker and Greenawalt (Decker, G. L. and Greenawalt, J. W. (1977) J. Ultrastr. Res. 59, 44-56) as described in (Pavlov, E. V., Priault, M., Pietkiewicz, D., Cheng, E.H.-Y., Antonsson, B., Manon, S., Korsmeyer, S. J., Mannella, C. A. and Kinnally, K. W. (2001) J. Cell Biology 155, 725-732). French pressing was done at 2000 PSI in 460 mM Mannitol 140 mM Sucrose 2 mM EDTA 10 mM HEPES pH 7.4. The pressed suspension was diluted 1:1 with 230 mM Mannitol 70 mM sucrose 1 mM EDTA 5 mM HEPES pH 7.4 and centrifuged at 10,000 rpm (12,000 g) for 10 minutes. Outer membranes were separated from inner membranes as described by Mannella (Mannella, C. A. (1982) J. Cell Biol. 94, 680-687).

Another assay relates to neurons. To be noted: cited from earlier work.
Assay [2] deals with permeability transition pore (PTP). To be noted: mitochondria; cited from earlier work.
Assay [3] has as its system MAC from apoptotic HeLa cells. Kind of assay: Blockade of MAC in partially purified fractions from apoptotic HeLa cells treated with staurosporine. The class given is biochemical. To be noted: unpublished results.

On to `CCN(CC)CC(=O)Nc1c(C)cccc1C` [lidocaine], for which the “effect on MAC activity” value in assay [1] (300 μM) is recorded as “little effect”; in assay [1] (no concentration stated (FIG. 3B)), “limited effects; also recorded: no effect”. The “IC50 for MAC, stated in words” value in assay [1] is “mM to M”.

`CCCCOc1cc(C(=O)NCCN(CC)CC)c2ccccc2n1` [dibucaine]: the “concentration that blocks mitochondrial depolarization induced by glutamate” value in the assay with neurons is 50 to 100 µM. In addition, the “concentration that blocks the PTP” value in assay [2] was 50 to 100 µM. In addition, the “blockade of MAC compared with FL5.12 preparation” value in assay [3] is recorded as “similar”. Also, in assay [1] (50 μM, +20 mV), the “current flow through MAC upon perfusion of the bath” value was “rapidly reduced”. Besides, in assay [1], the “voltage dependence of MAC blockade” value was “not voltage dependent”, the “Hill coefficient of MAC blockade” value turned out to be 1.3±0.1, the IC50 (commonly the concentration that gives 50% inhibition) is 39 µM and the “reversibility of MAC blockade on removal by perfusion of the bath” value (“reversibility of MAC blockade on removal” for short) was “reversible”.

For `CN1CCN(CCCN2c3ccccc3Sc3ccc(C(F)(F)F)cc32)CC1` [trifluoperazine], the “concentration that blocks mitochondrial depolarization induced by glutamate” value in the assay on neurons was 10 to 20 µM. Besides, the “concentration that blocks the PTP” value in assay [2] is 10 to 20 µM. Moreover, in assay [1], the “voltage dependence of MAC blockade” value is recorded as “not voltage dependent”; the “Hill coefficient of MAC blockade” value is recorded as 1.4±0.2; the “IC50 for MAC, stated in words” value is on record as “high nanomolar range”; the IC50 was 0.9 µM. In assay [1], the “reversibility of MAC blockade on removal” value is listed as “not reversible”.

Turning to `CC(C)NCC(O)COc1cccc2ccccc12` (stereo not drawn) [propranolol], in assay [1], the “voltage dependence of MAC blockade” value is listed as “not voltage dependent”, the “Hill coefficient of MAC blockade” value amounted to 2.1±0.2 and the “reversibility of MAC blockade on removal” value was “not reversible”.
